Measurements taken from patent EP0981526B1, “NOVEL ANTIDIABETIC COMPOUNDS HAVING HYPOLIPIDAEMIC, ANTIHYPERTENSIVE PROPERTIES, PROCESS FOR THEIR PREPARATION AND PHARMACEUTICAL COMPOSITIONS CONTAINING THEM” (Dr. Reddy's Laboratories Ltd., priority 1997, dated 1997).

Test system: C57BL/KsJ-db/db mice
Assay: Blood sugar and triglycerides lowering activity in db/db mice (in vivo)
Conditions: for Reduction in Blood Glucose Level (%) / Triglyceride Lowering (%): oral gavage daily, male db/db mice; for Reduction in Blood Glucose Level (%): plasma glucose; for Triglyceride Lowering (%): plasma triglyceride
Source text: Mutation in colonies of laboratory animals and different sensitivities to dietary regimens have made the development of animal models with non-insulin dependent diabetes associated with obesity and insulin resistance possible. Genetic models such as db/db and ob/ob (See Diabetes. (1982) 31(1): 1-6) in mice and fa/fa and zucker rats have been developed by the various laboratories for understanding the pathophysiology of disease and testing the efficacy of new antidiabetic compounds (Diabetes, (1983)32: 830-838; Annu. Rep. Sankyo Res. Lab. (1994). 46: 1-57). The homozygous animals, C57 BL/KsJ-db/db mice developed by Jackson Laboratory, US, are obese, hyperglycemic, hyperinsulinemic and insulin resistant (J. Clin. Invest., (1990) 85: 962-967), whereas heterozygous are lean and normoglycemic. In db/db model mouse progressively develops insulinopenia with age, a feature commonly observed in late stages of human type II diabetes when blood sugar levels are insufficiently controlled. The state of pancreas and its course vary according to the models. Since this model resembles that of type II diabetes mellitus, the compounds of the present invention were tested for blood sugar and triglycerides lowering activities.
Male C57BL/KsJ-db/db mice of 8 to 14 weeks age, having body weight range of 35 to 60 grams, procured from the Jackson Laboratory, USA, were used in the experiment. The mice were provided with standard feed (National Institute of Nutrition, Hyderabad, India) and acidified water, ad libitum. The animals having more than 300 mg/dl blood sugar were used for testing. The number of animals in each group was 4.
The random blood sugar ad triglyceride levels were measured by collecting blood (100 µl) through orbital sinus, using heparinized capillary in tubes containing EDTA which was centrifuged to obtain plasma. The plasma glucose and triglyceride levels were measured through spectrometrically, by glucose oxidase and glycerol-3-PO4 oxidase/peroxidase enzyme (Dr. Reddy's Lab. Diagnostic Division Kits, Hyderabad, India) methods respectively. On 6th day the blood samples were collected one hour after administration of test compounds/vehicle for assessing the biological activity.
Test compounds were suspended on 0.25 % carboxymethyl cellulose and administered to test group at a dose of 30 mg to 200 mg/kg through oral gavage daily for 6 to 9 days. The control group received vehicle (dose 10 ml/kg).
The blood sugar and triglycerides lowering activities of the test compound was calculated according to the formula: Blood sugar / triglycerides lowering activity (%) = 1 -(DT/DC)/(TC/ZC)X 100 [formula] • ZC = Zero day control group value • DC = Zero day treated group value • TC = Control group value on test day • DT = Treated group value on the test day

[1] = dose 200 mg/kg, treated for nine days

O=C1NC(=O)C(=Cc2ccc(OC[C@@H]3CCCN3C(=O)OCc3ccccc3)cc2)S1 [Example 5, 5-[4-[1-(Benzyloxycarbonyl)-(2S)-pyrrolidin-2-ylmethoxy]phenylmethylene]thiazolidine-2,4-dione]
Reduction in Blood Glucose Level (%) (dose 30 mg/kg): 30% | Triglyceride Lowering (%) (dose 30 mg/kg): 5%

O=C1NC(=O)C(=Cc2ccc(OC3CCN(C(=O)NCc4ccccc4)CC3)cc2)S1 [Example 10, 5-[4-[1-(Benzylaminocarbonyl)piperidin-4-yloxy]phenylmethylene]thiazolidine-2,4-dione]
Reduction in Blood Glucose Level (%) (dose 30 mg/kg): 37% | Triglyceride Lowering (%) (dose 30 mg/kg): 6%

O=C1NC(=O)C(=Cc2ccc(OC3CCN(C(=O)OCc4ccccc4)CC3)cc2)S1 [Example 1, 5-[4-[1(Benzyloxycarbonyl)piperidin-4-yloxy]phenylmethylene]thiazolidine-2,4-dione]
Reduction in Blood Glucose Level (%) (dose 30 mg/kg): 47% | Reduction in Blood Glucose Level (%) (dose 100 mg/kg): 59% | Triglyceride Lowering (%) (dose 100 mg/kg): 29% | Reduction in Blood Glucose Level (%) [1]: 62% | Triglyceride Lowering (%) [1]: 70%

O=C1NC(=O)C(=Cc2ccc(OCC3CCN(C(=O)OCc4ccccc4)CC3)cc2)S1 [Example 3, 5-[4-[1-(Benzyloxycarbonyl)piperidin-4-ylmethoxy]phenylmethylene] thiazolidine-2,4-dione]
Reduction in Blood Glucose Level (%) (dose 100 mg/kg): 35% | Triglyceride Lowering (%) (dose 100 mg/kg): 56%

Cc1c(C)c2c(c(C)c1O)CCC(C)(COc1ccc(CC3SC(=O)NC3=O)cc1)O2 (stereo not drawn) [Troglitazone, reference compound]
reduction in random blood sugar level (100 mg/kg, daily dose, on 6th day, standard drug, db/db mice): 28%
